In publication PMC6402191 (Clinical and Translational Science, 2017):

Tests used:
[1] = Human mass balance study of baricitinib; assay type: in vivo
OATP1B3 = biological target: T1, OATP1B3 (Homo sapiens, UniProt Q9NPD5); assay: Baricitinib substrate study in OATP1B3-transfected HEK-PEAK cells; assay type: in vitro ADME
T1 sequence (Q9NPD5 1-702): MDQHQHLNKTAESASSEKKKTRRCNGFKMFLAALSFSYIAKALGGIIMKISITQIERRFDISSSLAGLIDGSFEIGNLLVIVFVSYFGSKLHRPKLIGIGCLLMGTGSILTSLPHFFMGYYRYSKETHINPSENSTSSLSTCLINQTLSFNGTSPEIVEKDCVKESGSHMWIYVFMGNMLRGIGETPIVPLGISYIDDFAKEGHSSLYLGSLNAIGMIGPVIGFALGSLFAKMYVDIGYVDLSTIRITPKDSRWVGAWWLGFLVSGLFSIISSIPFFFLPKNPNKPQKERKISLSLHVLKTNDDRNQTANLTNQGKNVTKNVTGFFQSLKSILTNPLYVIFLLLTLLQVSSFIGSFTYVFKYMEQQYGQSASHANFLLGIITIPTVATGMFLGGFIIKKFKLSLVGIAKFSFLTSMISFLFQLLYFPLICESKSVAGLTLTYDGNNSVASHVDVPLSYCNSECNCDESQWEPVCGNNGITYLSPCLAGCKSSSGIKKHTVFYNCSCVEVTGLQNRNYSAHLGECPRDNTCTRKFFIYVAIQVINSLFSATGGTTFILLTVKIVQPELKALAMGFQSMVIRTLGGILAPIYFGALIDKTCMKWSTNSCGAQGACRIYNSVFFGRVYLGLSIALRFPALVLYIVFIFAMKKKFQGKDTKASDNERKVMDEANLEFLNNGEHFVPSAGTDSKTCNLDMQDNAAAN

Fa (fraction absorbed) ([1]; calculated from human mass balance study): 0.8
blood plasma ratio ([1]; human, blood and plasma, oral): 1.26
dose found as parent compound in feces ([1]; in vivo): 20 % of the dose
OATP1B3 substrate (OATP1B3): not a substrate
SMILES: CCS(=O)(=O)N1CC(CC#N)(n2cc(-c3ncnc4[nH]ccc34)cn2)C1 [Baricitinib]
